Where no end group is shown, it is not given here.
Experiments:
[1] = biological target: T1, pSer33/Ser37 β-catenin:β-TrCP interaction (Homo sapiens, UniProt P35222+Q9Y297); test: TR-FRET binding enhancement assay, pSer33/Ser37 peptide
T1 construct: titrating BODIPY-FL-labeled β-catenin peptides (residues 17-48) against 300 pM β-TrCP; 6xHis-SMT3 (N, cleaved yes); made in house; host or cells: E. coli (co-expressed with BirA)
Protocol: (§1) Compounds were incubated in a 20 μl reaction volume with 300 pM biotinylated β-TrCP/Skp1 preincubated with 1.2 nM terbium-coupled streptavidin (Cisbio) and BODIPY-FL labeled β-catenin peptides (see figure legends for peptide details) in a white 384-well microplate (Perkin Elmer ProxiPlate), using a PBS buffer containing 0.01% Triton X-100 and 2 mM DTT with 2% final DMSO. […] Following 1-h incubation, plates were read for TR-FRET signal after excitation at 320 nm and read at 520 and 620 nm using an EnVision plate reader (Perkin Elmer). TR-FRET signal was calculated using a 520/620 nm ratio. Binding and enhancement data were fit to a standard Hill equation (Y = Bmin + (Bmax − Bmin)(X^h)/(X^h + EC50^h)) in Prism (GraphPad). Errors are standard error of the fit.

[2] = biological target: T2, pSer33/Ser37 β-catenin peptide binding to β-TrCP (Homo sapiens, UniProt P35222+Q9Y297); test: TR-FRET peptide binding and cooperativity assay, pSer33/Ser37 peptide; details: ratio of peptide KD without and with saturating enhancer; pSer33/Ser37
T2 construct: titrating BODIPY-FL-labeled β-catenin peptides (residues 17-48) against 300 pM β-TrCP; 6xHis-SMT3 (N, cleaved yes); made in house; host or cells: E. coli (co-expressed with BirA)
T2 sequence (Q9Y297 1-569 isoform Q9Y297-2): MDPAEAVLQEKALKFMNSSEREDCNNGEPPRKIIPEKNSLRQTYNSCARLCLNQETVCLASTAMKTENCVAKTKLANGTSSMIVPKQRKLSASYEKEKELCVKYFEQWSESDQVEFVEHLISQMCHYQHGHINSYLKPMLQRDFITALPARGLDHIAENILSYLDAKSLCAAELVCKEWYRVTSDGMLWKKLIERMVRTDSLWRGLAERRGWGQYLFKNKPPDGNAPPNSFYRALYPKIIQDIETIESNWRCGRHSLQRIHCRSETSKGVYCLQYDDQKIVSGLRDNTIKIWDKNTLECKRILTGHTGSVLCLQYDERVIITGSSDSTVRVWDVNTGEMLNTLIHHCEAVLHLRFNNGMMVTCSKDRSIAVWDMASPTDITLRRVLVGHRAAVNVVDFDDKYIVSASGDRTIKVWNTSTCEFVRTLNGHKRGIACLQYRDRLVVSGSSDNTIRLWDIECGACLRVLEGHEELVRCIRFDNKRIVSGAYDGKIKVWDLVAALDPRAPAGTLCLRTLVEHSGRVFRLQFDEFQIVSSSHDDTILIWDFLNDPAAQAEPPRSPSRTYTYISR
T2 sequence (P63208 whole entry partner, the tested form may be a part): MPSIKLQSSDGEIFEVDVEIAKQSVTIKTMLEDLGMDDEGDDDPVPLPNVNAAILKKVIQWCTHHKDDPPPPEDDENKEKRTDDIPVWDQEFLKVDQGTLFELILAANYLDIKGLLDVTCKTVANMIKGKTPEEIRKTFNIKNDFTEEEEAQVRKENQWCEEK
T2 sequence (P35222 17-48 limits assumed): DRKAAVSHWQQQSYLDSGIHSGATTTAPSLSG
Protocol: as §1

[3] = biological target: T3, pSer33/S37A β-catenin peptide binding to β-TrCP (Homo sapiens, UniProt P35222+Q9Y297, S37A); test: TR-FRET binding enhancement assay, pSer33/S37A peptide
T3 construct: titrating BODIPY-FL-labeled β-catenin peptides (residues 17-48) against 300 pM β-TrCP; 6xHis-SMT3 (N, cleaved yes); made in house; host or cells: E. coli (co-expressed with BirA)
T3 sequence (Q9Y297 1-569 isoform Q9Y297-2, stated change not applied): as the sequence (Q9Y297 1-569 isoform Q9Y297-2) above
T3 sequence (P63208 whole entry partner, the tested form may be a part): as the sequence (P63208 whole entry partner, the tested form may be a part) above
T3 sequence (P35222 17-48 S37A limits assumed): as the sequence (P35222 17-48 limits assumed) above, with S21A counted along it
Protocol: as §1

[4] = biological target: T4, pSer33/Ser37 β-catenin peptide ubiquitylation by SCFβ-TrCP (Homo sapiens, UniProt P35222+Q9Y297); test: In vitro ubiquitylation of pSer33/Ser37 β-catenin peptide; format: biochemical
T4 construct: fluorescently-labeled β-catenin peptide (residues 17–60) were ubiquitylated; 6xHis-SMT3 (N, cleaved yes); made in house; host or cells: E. coli (β-TrCP1/Skp1); E. coli or SF9 (Cul1-Rbx1)
T4 sequence (Q9Y297 1-569 isoform Q9Y297-2): as the sequence (Q9Y297 1-569 isoform Q9Y297-2) above
T4 sequence (P63208 whole entry partner, the tested form may be a part): as the sequence (P63208 whole entry partner, the tested form may be a part) above
T4 sequence (Q13616 whole entry partner, the tested form may be a part): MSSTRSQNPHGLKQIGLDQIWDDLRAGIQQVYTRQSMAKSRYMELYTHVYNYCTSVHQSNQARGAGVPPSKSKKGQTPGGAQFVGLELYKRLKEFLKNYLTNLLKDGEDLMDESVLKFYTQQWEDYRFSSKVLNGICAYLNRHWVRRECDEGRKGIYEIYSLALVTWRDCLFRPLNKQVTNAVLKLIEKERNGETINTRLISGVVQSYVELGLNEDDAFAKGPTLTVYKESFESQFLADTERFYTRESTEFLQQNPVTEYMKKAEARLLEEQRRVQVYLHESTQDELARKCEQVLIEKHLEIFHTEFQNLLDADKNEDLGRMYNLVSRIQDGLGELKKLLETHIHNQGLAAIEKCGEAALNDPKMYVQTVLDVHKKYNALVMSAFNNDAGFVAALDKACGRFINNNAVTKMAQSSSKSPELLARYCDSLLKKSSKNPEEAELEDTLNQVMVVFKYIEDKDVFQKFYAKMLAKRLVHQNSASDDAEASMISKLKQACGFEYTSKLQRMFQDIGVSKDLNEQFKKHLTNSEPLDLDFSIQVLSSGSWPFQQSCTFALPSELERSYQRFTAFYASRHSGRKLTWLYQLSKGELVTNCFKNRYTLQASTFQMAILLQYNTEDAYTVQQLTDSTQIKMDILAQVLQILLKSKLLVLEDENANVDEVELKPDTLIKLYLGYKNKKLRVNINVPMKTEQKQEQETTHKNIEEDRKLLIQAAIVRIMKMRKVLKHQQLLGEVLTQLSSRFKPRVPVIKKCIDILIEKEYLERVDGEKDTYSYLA
T4 sequence (P62877 whole entry partner, the tested form may be a part): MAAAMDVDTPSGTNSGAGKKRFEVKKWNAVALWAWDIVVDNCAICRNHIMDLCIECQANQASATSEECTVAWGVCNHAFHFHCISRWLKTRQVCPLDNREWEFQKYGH
T4 sequence (Q15843 1-76 partner limits assumed): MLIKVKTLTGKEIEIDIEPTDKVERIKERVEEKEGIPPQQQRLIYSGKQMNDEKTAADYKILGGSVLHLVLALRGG
T4 sequence (P35222 17-60 limits assumed): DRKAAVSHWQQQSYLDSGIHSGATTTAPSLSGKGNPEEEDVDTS
Protocol: (§2) Four micromolar of fluorescently-labeled β-catenin peptide (residues 17–60) were ubiquitylated in a buffer containing 25 mM Tris Cl (pH 7.5), 50 mM NaCl, 5 mM MgCl2, 2 mM ATP, and 1 mM DTT at room temperature in the presence of 62.5 μM Ubiquitin, 125 nM Ube1, 1.75 μM Cdc34A, and 100 nM neddylated SCF^β-TrCP in the presence or absence of compound (as indicated). Typically, individual reaction mixes with either Ubiquitin, Ube1 and Cdc34A or β-catenin, SCF^β-TrCP and compound were preincubated and subsequently mixed to initiate β-catenin ubiquitylation. Reactions were quenched by SDS loading buffer, resolved by SDS-PAGE and imaged for fluorescence. For full length β-catenin protein ubiquitylation 400 nM β-catenin and 400 nM SCF^β-TrCP were used instead.

[5] = biological target: T5, pSer33/S37A β-catenin peptide ubiquitylation by SCFβ-TrCP (Homo sapiens, UniProt P35222+Q9Y297, S37A); test: In vitro ubiquitylation of pSer33/S37A β-catenin peptide; format: biochemical
T5 construct: fluorescently-labeled β-catenin peptide (residues 17–60; as indicated) was ubiquitylated; 6xHis-SMT3 (N, cleaved yes); made in house; host or cells: E. coli (β-TrCP1/Skp1); E. coli or SF9 (Cul1-Rbx1)
Protocol: as §2

[6] = biological target: T6, full-length S33E/S37A β-catenin protein ubiquitylation by SCFβ-TrCP (Homo sapiens, UniProt P35222+Q9Y297, S33E/S37A); test: In vitro ubiquitylation of full-length S33E/S37A β-catenin protein; format: biochemical; details: 20 μM compound
T6 construct: 6xHis-SMT3 (N, cleaved yes); host or cells: HEK293T (β-catenin); E. coli (β-TrCP1/Skp1); E. coli or SF9 (Cul1-Rbx1)
Protocol: as §2

[7] = biological target: T3, pSer33/S37A β-catenin peptide binding to β-TrCP; test: TR-FRET peptide binding and cooperativity assay, pSer33/S37A peptide
Protocol: as §1

[8] = biological target: T7, S33E/S37A β-catenin peptide binding to β-TrCP (Homo sapiens, UniProt P35222+Q9Y297, S33E/S37A); test: TR-FRET binding enhancement assay, S33E/S37A peptide; details: 1% binding saturation
T7 construct: titrating BODIPY-FL-labeled β-catenin peptides (residues 17-48) against 300 pM β-TrCP; 6xHis-SMT3 (N, cleaved yes); made in house; host or cells: E. coli (co-expressed with BirA)
T7 sequence (Q9Y297 1-569 isoform Q9Y297-2, stated change not applied, one chain of several): as the sequence (Q9Y297 1-569 isoform Q9Y297-2) above
T7 sequence (P63208 whole entry partner, one chain of several, the tested form may be a part): as the sequence (P63208 whole entry partner, the tested form may be a part) above
Protocol: as §1

[9] = biological target: T7, S33E/S37A β-catenin peptide binding to β-TrCP; test: TR-FRET peptide binding assay, S33E/S37A peptide; details: read-out: binding affinity of S33E/S37A peptide
Protocol: as §1

[10] = biological target: T8, S33E/S37A β-catenin peptide ubiquitylation by SCFβ-TrCP (Homo sapiens, UniProt P35222+Q9Y297, S33E/S37A); test: In vitro ubiquitylation of S33E/S37A β-catenin peptide; format: biochemical; details: 20 μM compound
T8 construct: fluorescently-labeled S33E/S37A β-catenin peptide (residues 17–60) was ubiquitylated; 6xHis-SMT3 (N, cleaved yes); made in house; host or cells: E. coli (β-TrCP1/Skp1); E. coli or SF9 (Cul1-Rbx1)
Protocol: as §2

[11] = biological target: T9, β-TrCP (Homo sapiens, UniProt Q9Y297); test: TR-FRET peptide binding in absence of compound
T9 construct: 6xHis-SMT3 (N, cleaved yes); made in house; host or cells: E. coli (co-expressed with BirA)
Protocol: as §1

T1 sequence (Q9Y297 1-569 isoform Q9Y297-2): as the sequence (Q9Y297 1-569 isoform Q9Y297-2) above
T1 sequence (P63208 whole entry partner, the tested form may be a part): as the sequence (P63208 whole entry partner, the tested form may be a part) above
T1 sequence (P35222 17-48 limits assumed): as the sequence (P35222 17-48 limits assumed) above

Q: How did the EC50 [1] turn out when O=C(O)c1cccc(NC(=O)c2c(Oc3ccccc3)cc(C(F)(F)F)[nH]c2=O)c1 [NRX-2663] was run?
A: The EC50 was 80 ± 4 µM.

Q: And the cooperativity of binding [2]?
A: The cooperativity of binding was 13 fold.

Q: And the EC50 [3]?
A: The EC50 was 22.9 ± 1.4 µM.

Q: And the “ligand concentration at which ubiquitin chain formation resembles WT pSer33/pSer37 peptide” value [4]?
A: The value was at least 16 μM.

Q: What about the “enhancement of ubiquitylation of pSer33/Ser37 β-catenin peptide” value ([4]; peptide residues 17–60) of the same compound?
A: Its value is “markedly enhances”.

Q: What does the source list for O=C(O)c1cccc(NC(=O)c2c(Sc3c(Cl)cccc3Cl)cc(C(F)(F)F)[nH]c2=O)c1 [NRX-103094]?
A: concentration giving ubiquitylation greater than WT pSer33/pSer37 levels [5]: 250 nM; ubiquitylation of full-length S33E/S37A β-catenin protein [6]: strongly ubiquitylated; cooperativity of peptide binding to β-TrCP [7]: 1000 fold; EC50 [8]: 3.9 ± 0.1 µM; Kd [9]: 0.022 µM; ubiquitylation of S33E/S37A β-catenin peptide [10]: robust time-dependent ubiquitylation

Q: With “Ac-CDRKAAVSHWQQQSYLDEGIHAGATTTAPSLSG [S33E/S37A]” as the compound, how does the “decrease in binding affinity relative to pSer33/S37A peptide” value [11] read?
A: Its value is over 10 fold.

— PMC6441019, “Prospective discovery of small molecule enhancers of an E3 ligase-substrate interaction” (Nature Communications, 2019)
